Tests used:
[1] = system: acetic acid-induced abdominal constrictions; test: Specific pain reaction by chemical stimulation of peritoneum (abdominal constriction test); format: in vivo, Balb/c mice; conditions: 30 mg/kg intragastric, M ± m, n = 12
Experimental: The model of the specific pain reaction by the method of chemical stimulation of peritoneum (“abdominal constriction” test) was carried out according to the standard procedure. To conduct the “abdominal constriction” test, Balb/c mice were intraperitoneally administered with 1% acetic acid in a volume of 10 ml per kg of the animal body weight. The test compound was administered intragastrically, once, 1 or 2 hour(s) before the administration of acetic acid. A quantity of constrictions (convulsive twitching of the abdominal muscles accompanied with stretching hind quarters and arching) was evaluated 15 minutes after the administration of acetic acid.

[2] = system: macrophage chemotaxis (thioglycolate peritonitis); test: Macrophage chemotaxis to the site of inflammation (thioglycolate peritonitis) in mice; format: in vivo, male Balb/c mice
Experimental: The induction of macrophage chemotaxis to the site of inflammation (thioglycolate peritonitis) in mice were performed according to the standard procedure [J Leukoc Biol. 2009. V. 86.(2). P. 361-370]. Male Balb/c mice were intraperitoneally administered with 2 ml of 3% thioglycolic medium stored for 1 month. The preparation of thioglycolic medium was carried out as follows: 15 g of dry thioglycolic medium was stirred in 500 ml of distilled water, was boiled at 100° C. for 2 minutes, was filtered through a paper filter, was poured out by 50 ml in sterile tubes and was sterilized by autoclaving at 121° C. for 15 minutes. […]
After 72 hours, the animals were euthanized in a CO2-chamber and the peritoneum area was wetted with 70% alcohol, the skin on the abdominal cavity was carefully cut off, and 5 ml of a cold phosphate-saline buffer containing 0.1% of ethylenediamine tetraacetic acid was injected intraperitoneally with a syringe. After gentle massage of the abdominal cavity, the exudate was collected by a syringe into tubes, and the volume of the collected exudate was determined.
Smears were prepared from the cell pellet, which smears were further fixed in methanol (5 minutes) and stained by Romanowsky-Giemsa (40 min at 20-22° C.). On the smears, under the microscope Olympus bx51 (at magnification 100) the quantity of monocytes/macrophages was counted by the routine method. […]

[3] = system: neutrophil and macrophage chemotaxis (carrageenan pouch); test: Macrophage and neutrophil chemotaxis model to the site of inflammation (carrageenan pouch) in mice; format: in vivo, female Balb/c mice
Experimental: The induction of macrophages and neutrophils chemotaxis to the site of inflammation (carrageenan pouch) in mice was tested according to the standard procedure [Curr Protoc Pharmacol. 2012. V. 5. P. 5-6]. […] After 3 days to maintain the integrity of the air pouch without increasing the wound, 2.5 ml of air was introduced at the same site. On day 6 under CO2 anesthesia to induce inflammation, 1 ml of 1% carrageenan solution prepared in physiological saline was administered directly into the pouch. The test compound was administered intragastrically 1 hour before the administration of carrageenan and then every 10-12 hours in the volume of 0.1 ml. The last administration is 12 hours before the slaughter. Euthanasia by the inhalation of CO2 was performed 48 hours after the carrageenan injection. Immediately after the euthanasia, 1 ml of physiological saline containing 5.4 mM of EDTA of room temperature was introduced into the pouch with a sterile syringe. After gentle massage of the region of the air pouch, a sagittal incision was made across the pouch and exudate was collected by a dispenser. After the centrifugation of the exudate from the cell pellet, smears were prepared, which were then fixed in methanol and were stained by Romanowsky-Giemsa. A quantity of macrophages and neutrophils was then determined on the smears under a microscope. The cell calculation was made up to 100 pcs.

[4] = 30 mg/kg intragastric, 48 hours after carrageenan, M ± m, n = 10

Structure (SMILES): O=C1CCCC(=O)N1CCc1cnc[nH]1 [Compound 1, 1-(2-(1H-imidazol-4-yl)ethyl)piperidine-2,6-dione]
- Quantity of constrictions for 15 minutes ([1]; 1 hour before the administration of acetic acid): 23.8 ± 3.7
- Quantity of constrictions for 15 minutes ([1]; 2 hour before the administration of acetic acid): 22.7 ± 2.6
- Macrophages in peritoneal exudate ([2]; 30 mg/kg intragastric, 72 hours after thioglycolate): 0.84 ± 0.16 & ×10^9/l
- Quantity of macrophages in the peritoneal exudate ([2]; intragastric administration): to the level of intact animals
- Macrophages in the exudate from the carrageenan pouch [3, 4]: 0.6 ± 0.2 & ×10^9/l
- Neutrophils in the exudate from the carrageenan pouch [3, 4]: 0.6 ± 0.1 & ×10^9/l
- Quantity of neutrophils and macrophages in the pouch cavity ([3]; intragastric administration): to the level of intact animals

Reference: patent publication US11439631B2, “Use of a glutarimide derivative to treat diseases related to the aberrant activity of cytokines” (“CHEMIMMUNE THERAPEUTICS” LIMITED LIABILITY COMPANY, priority 2017, dated 2022)
